Numbered stars: 1 amine (or outer) side, 2 acyl side, 3 side chain; on linkers, the order of the positions; unused ones are H or OH. Square brackets hold non-standard residues; d marks the D form. Peptide text beside a SMILES is read from it. * marks the point of attachment. 1Nal = N[C@@H](Cc1cccc2ccccc12)C(=O)O; 2Nal = N[C@@H](Cc1ccc2ccccc2c1)C(=O)O; d2Nal = N[C@H](Cc1ccc2ccccc2c1)C(=O)O; dPhg = N[C@@H](C(=O)O)c1ccccc1; Suc = O=C(CCC(=O)[*:2])[*:1]; Boc = CC(C)(C)OC(=O)*
Assays:
Human α-thrombin = target: T1, Human α-thrombin (Homo sapiens, UniProt P00734); assay: Thrombin assay (chromogenic substrate S-2238); type: biochemical; conditions: for Percent Selectivity Thrombin: 100 times IC50 for factor Xa divided by IC50 for thrombin; for IC50: 60 min preincubation at room temperature, >25 means less than 50% inhibition at 25 μM
T1 construct: purchased Enzyme Research Laboratories, Inc
Description: (§1) To assay their activities, the compounds of the present invention are dissolved in buffer to give solutions containing concentrations ranging under assay concentrations from 0 to about 100 μM. The enzyme to be tested is then added to a solution containing a specified concentration of the test compound. Then after an incubation period, synthetic substrate for the enzyme being tested is added. The rate of substrate turnover is determined spectrophotometrically. The IC50 of the test compound is determined for each test compound in assays for factor Xa, factor XIa, thrombin and tPA. IC50 is that concentration of test compound giving 50% inhibition of the substrate turnover. Percent selectivity is used to indicate selectivity of a compound in inhibiting Factor Xa in comparison with either Factor XIa, thrombin or tPA. Percent selectivity of a particular compound for either Factor XIa, thrombin or tPA refers to a number obtained by dividing the product of one hundred and the IC50 of the compound for Factor Xa by the IC50 of the compound for either Factor XIa, thrombin or tPA.
(§2) The specificity of the peptide aldehydes through was determined by measurement of their IC50 against factor Xa, factor XIa, thrombin and tissue plasminogen activator (tPA). Peptide aldehyde which has been described in the art was run as a comparison. A specific concentration of enzyme and its substrate were challenged with varying concentrations: of inhibitor. IC50 is that concentration of inhibitor giving 50% inhibition of catalytic activity, under the assay conditions Specific assay procedures used are presented below.
Enzyme activity was determined using as substrate, S2238 (D-phenylalanyl-L-pipecolyl-L-arginine-p-nitroanilide dihydrochloride) which was obtained from Kabi Diagnostica. The substrate was made up in deionized water prior to use.
Human α-thrombin was obtained from Enzyme Research Laboratories, Inc. The enzyme was diluted into TBSA prior to use.
(§3) The assay was run by combining in appropriate wells 50 μL of TBSA, 50 μL of inhibitor in TBSA or TBSA (as negative control) and 50 μL of 4 nM human α-thrombin or TBSA (as background control). After incubating this mixture for 60 minutes at room temperature, 50 μL of 0.24 mM S-2238 was added to each well and the initial rate of the change of optical density at 405 nm (OD405 nm) for each well was determined. OD405 nm was measured every 10 seconds for 5 minutes.

[1] = target: T2, Human recombinant t-PA (Activase) (Homo sapiens, UniProt P00750); assay: tPA assay (substrate Pefachrome tPA); type: biochemical; conditions: for Percent Selectivity tPA: 100 times IC50 for factor Xa divided by IC50 for tPA; for IC50: 60 min preincubation at room temperature, >25 means less than 50% inhibition at 25 μM
T2 construct: purchased Genentech, Inc. Activase
Description: as §1, §2
Enzyme activity was determined using as substrate, Pefachrome tPA (O-methylsulfonate-D-hexahydrotyrosine-L-glycyl-L-argini ne-p-nit roanilide acetate salt) which was obtained from Centerchem, Inc. The substrate was made up in deionized water prior to use.
Human recombinant t-PA (Activase®) was obtained. from Genentech, Inc. The enzyme was reconstituted with water, then diluted into TBSA prior to use.
as §3, with “recombinant tPA” for “α-thrombin”, “4” for “0.24”, “Pefachrome tPA” for “S-2238”

Human factor XIa = target: T3, Human factor XIa (Homo sapiens, UniProt P03951); assay: Factor XIa assay (chromogenic substrate S-2366); type: biochemical; conditions: for Percent Selectivity XIa: 100 times IC50 for factor Xa divided by IC50 for factor XIa; for IC50: 60 min preincubation at room temperature, >25 means less than 50% inhibition at 25 μM
T3 construct: purchased Enzyme Research Laboratories, Inc
Description: as §1, §2
Enzyme activity was determined using as substrate, S2366 (L-pyroglutamyl-L-prolyl-L-arginine-p-nitroanilide hydrochloride) which was obtained from Kabi Diagnostica. The substrate was made up in deionized water prior to use.
Human factor XIa was obtained from Enzyme Research Laboratories, Inc. The enzyme was diluted into TBSA prior to use.
(§4) The assay was run by combining in appropriate wells 50 μL of TBSA, 50 μL of inhibitor in TBSA or TBSA (as negative control) and 50 μL of 2 nM human Factor Xia or TBSA (as background control). After incubating this mixture for 60 minutes at room temperature, 50 μL of 6 mM S-2366 was added to each well and the initial rate of the change of the optical density at 405 nm (OD405 nm) for each well was determined. OD405 nm was measured every 10 seconds for 5 minutes.

Human factor Xa [2] = target: T4, Human factor Xa (Homo sapiens, UniProt P00742); assay: Factor Xa assay (chromogenic substrate S-2765); type: biochemical; conditions: for IC50: 60 min preincubation at room temperature, TBSA pH 7.4; for Percent Selectivity Xa: taken as 100 by definition
T4 construct: Human factor X contains a light-chain subunit containing 139 amino acid residues; purchased Enzyme Research Laboratories
Description: as §1, §2
Enzyme activity was determined using as substrate, S2765 (N-a-benzyloxycarbonyl-D-argininyl-L-glycyl-L-arginine-p-nitroanilide dihydrochloride) which was obtained from Kabi Diagnostica. The substrate was made up in deionized water prior to use.
Human factor Xa was obtained from Enzyme Research Laboratories. The enzyme was diluted into TBSA prior to use.
as §4, with “Factor Xa” for “Factor Xia”, “of 1” for “of 6”, “mM S-2765” for “mM S-2366”

human thrombin = human thrombin (Homo sapiens, UniProt P00734); conditions: Hitomi et al., p. 166; read-out: inhibitor constant, human thrombin; cited from earlier work
Human factor Xa [3] = target: T4, Human factor Xa; conditions: Hitomi et al., p. 166; read-out: inhibitor constant, human factor Xa; cited from earlier work

T3 sequence (P03951 388-625 limits assumed): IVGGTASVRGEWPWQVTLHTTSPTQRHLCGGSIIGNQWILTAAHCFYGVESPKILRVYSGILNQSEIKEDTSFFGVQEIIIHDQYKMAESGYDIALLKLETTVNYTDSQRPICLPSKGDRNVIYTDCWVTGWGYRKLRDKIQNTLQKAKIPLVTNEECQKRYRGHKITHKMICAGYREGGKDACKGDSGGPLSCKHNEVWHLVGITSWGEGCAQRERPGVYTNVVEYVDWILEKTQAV
T3 sequence (P03951 19-387 partner limits assumed): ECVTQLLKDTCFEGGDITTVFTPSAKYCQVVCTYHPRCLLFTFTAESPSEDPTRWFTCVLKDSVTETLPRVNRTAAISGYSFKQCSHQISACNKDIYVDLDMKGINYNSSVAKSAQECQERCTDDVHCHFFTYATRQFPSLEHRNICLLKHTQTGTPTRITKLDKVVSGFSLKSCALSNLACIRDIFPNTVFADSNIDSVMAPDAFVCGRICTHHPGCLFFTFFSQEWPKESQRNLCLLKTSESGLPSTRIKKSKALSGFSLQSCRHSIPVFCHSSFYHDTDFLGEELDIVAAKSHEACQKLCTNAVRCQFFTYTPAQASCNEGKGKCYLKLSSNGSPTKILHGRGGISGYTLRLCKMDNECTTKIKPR
T2 sequence (P00750 36-562): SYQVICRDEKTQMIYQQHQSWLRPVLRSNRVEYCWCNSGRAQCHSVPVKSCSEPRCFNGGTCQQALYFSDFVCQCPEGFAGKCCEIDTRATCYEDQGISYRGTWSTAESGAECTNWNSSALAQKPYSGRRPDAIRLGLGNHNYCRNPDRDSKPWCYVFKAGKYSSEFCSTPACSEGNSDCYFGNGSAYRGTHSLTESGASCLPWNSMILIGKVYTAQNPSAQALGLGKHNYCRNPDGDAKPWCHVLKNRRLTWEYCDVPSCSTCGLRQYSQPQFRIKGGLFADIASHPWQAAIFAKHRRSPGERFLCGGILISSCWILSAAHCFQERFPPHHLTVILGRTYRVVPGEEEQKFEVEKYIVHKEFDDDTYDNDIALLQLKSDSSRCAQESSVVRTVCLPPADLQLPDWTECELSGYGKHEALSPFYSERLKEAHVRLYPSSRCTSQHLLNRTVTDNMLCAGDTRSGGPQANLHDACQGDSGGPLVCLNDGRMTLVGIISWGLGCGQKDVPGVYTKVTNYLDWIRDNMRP
T4 sequence (P00742 235-488 limits assumed): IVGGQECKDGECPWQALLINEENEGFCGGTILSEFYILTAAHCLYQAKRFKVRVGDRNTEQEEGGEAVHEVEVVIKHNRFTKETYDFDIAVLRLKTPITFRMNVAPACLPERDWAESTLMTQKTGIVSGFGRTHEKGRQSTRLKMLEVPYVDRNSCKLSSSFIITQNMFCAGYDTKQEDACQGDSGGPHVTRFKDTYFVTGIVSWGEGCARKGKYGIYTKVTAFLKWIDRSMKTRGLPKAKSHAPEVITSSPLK
T4 sequence (P00742 41-179 partner limits assumed): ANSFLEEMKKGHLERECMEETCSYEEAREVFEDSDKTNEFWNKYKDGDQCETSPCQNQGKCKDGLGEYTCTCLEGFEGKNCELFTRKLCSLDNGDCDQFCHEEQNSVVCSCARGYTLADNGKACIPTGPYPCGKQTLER

| Compound | Percent Selectivity Thrombin (Human α-thrombin) | IC50 (Human α-thrombin) [µM] | Percent Selectivity tPA [1] | IC50 [1] [µM] | Percent Selectivity XIa (Human factor XIa) | IC50 (Human factor XIa) [µM] | IC50 (Human factor Xa [2]) [µM] | Percent Selectivity Xa (Human factor Xa [2]) | Ki (human thrombin) [µM] | Ki (Human factor Xa [3]) [µM] |
| --- | --- | --- | --- | --- | --- | --- | --- | --- | --- | --- |
| CC(C)(C)OC(=O)N[C@H](Cc1ccccc1)C(=O)N1CC[C@H](c2ccccc2)[C@H]1C(=O)N[C@H](C=O)CCCNC(=N)N (relative stereo) [[10], N-t-butoxycarbonyl-D-phenylalanyl-L-(3-trans-phenyl)prolinyl-L-argininal] | < 2.5 | > 25 | < 2.5 | > 25 | < 2.5 | > 25 | 0.625 | 100 | – | – |
| N=C(N)c1ccc2cc(OC(=O)c3ccc(N=C(N)N)cc3)ccc2c1 [FUT-75, 6-amidino-2-naphthyl-p-guanidinobenzoate dimethanesulfonate] | – | – | – | – | – | – | – | – | 1.3 | 4.1 |
| CC(C)(C)OC(=O)N[C@H](Cc1ccc2ccccc2c1)C(=O)N[C@@H](Cc1ccccc1)C(=O)N[C@H](C=O)CCCNC(=N)N [[1], N-t-butoxycarbonyl-D-3-(2-naphthyl)alanyl-L-phenylalanyl-L-argininal] (Boc-[d2Nal]-Phe-Arg-aldehyde) | 1.6 | 14 | < 0.9 | > 25 | 1.4 | 16 | 0.22 | 100 | – | – |
| CC(C)(C)OC(=O)N[C@@H](C(=O)N[C@@H](Cc1ccccc1)C(=O)N[C@H](C=O)CCCN=C(N)N)c1ccccc1 [[2], N-t-Butoxycarbonyl-D-2-Phenylglycyl-L-phenylalanyl-L-Arainial] (Boc-[dPhg]-Phe-Arg-aldehyde) | < 2.6 | > 25 | < 2.6 | > 25 | 4.9 | 13 | 0.64 | 100 | – | – |
| CC(C)(C)OC(=O)N[C@H](Cc1ccccc1)C(=O)N[C@@H](Cc1ccc2ccccc2c1)C(=O)N[C@H](C=O)CCCNC(=N)N [[3], N-t-butoxycarbonyl-D-phenylalanyl-L-3-(2-naphthyl)alanyl-L-argininal] (Boc-[dF]-[2Nal]-Arg-aldehyde) | 3.6 | 25 | < 3.6 | > 25 | 3.6 | 25 | 0.89 | 100 | – | – |
| CC(C)(C)OC(=O)N[C@H](Cc1ccccc1)C(=O)N[C@@H](Cc1ccccc1)C(=O)N[C@H](C=O)CCCNC(=N)N [[4], N-t-butoxycarbonyl-D-phenylalinyl-L-phenylalinyl-L-argininal] (Boc-[dF]-Phe-Arg-aldehyde) | < 0.8 | > 25 | < 0.8 | > 25 | 0.8 | 25 | 0.21 | 100 | – | – |
| CC(C)(C)OC(=O)N[C@H](Cc1ccccc1)C(=O)N[C@@H](Cc1cccc2ccccc12)C(=O)N[C@H](C=O)CCCNC(=N)N [[5], N-t-butoxycarbonyl-D-phenylalanyl-L-3-(1-naphthyl)alanyl-L-argininal] (Boc-[dF]-[1Nal]-Arg-aldehyde) | 0.2 | 13 | < 0.1 | > 25 | 0.2 | 14 | 0.03 | 100 | – | – |
| CC(=O)N[C@H](Cc1ccccc1)C(=O)N[C@@H](Cc1cccc2ccccc12)C(=O)N[C@H](C=O)CCCNC(=N)N [[6], N-acetyl-D-phenylalanyl-L-3-(1-naphthyl)alanyl-L-argininal] (Ac-[dF]-[1Nal]-Arg-aldehyde) | < 0.1 | > 25 | < 0.1 | > 25 | 7.8 | 0.32 | 0.025 | 100 | – | – |
| CC(C)(C)OC(=O)NC(C(=O)N[C@@H](Cc1cccc2ccccc12)C(=O)N[C@H](C=O)CCCNC(=N)N)c1ccc(-c2ccccc2)cc1 (stereo partly drawn) [[7], N-t-butoxycarbonyl-D,L-(α-biphenyl)glycyl-L-3-(1-naphthyl)alanyl-L-argininal] | < 10 | > 25 | < 10 | > 25 | < 10 | > 25 | 2.5 | 100 | – | – |
| N=C(N)NCCC[C@@H](C=O)NC(=O)[C@H](Cc1cccc2ccccc12)NC(=O)[C@@H](Cc1ccccc1)NC(=O)CCC(=O)O [[8], N-succinyl-D-phenylalanyl-L-3-(1-naphthyl)alanyl-L-argininal] (Suc-[dF]-[1Nal]-Arg-aldehyde) | < 0.1 | > 25 | < 0.1 | > 25 | 0.12 | 20 | 0.023 | 100 | – | – |
| CC(C)CCC(=O)N[C@H](Cc1ccccc1)C(=O)N[C@@H](Cc1cccc2ccccc12)C(=O)N[C@H](C=O)CCCNC(=N)N [[9]] | < 0.68 | > 25 | – | – | < 0.68 | > 25 | 0.17 | 100 | – | – |
| CC(C)(C)OC(=O)N[C@H](Cc1ccccc1)C(=O)N1CCC[C@H]1C(=O)N[C@H](C=O)CCCNC(=N)N [[23], N-Boc-D-phenylalanyl-L-prolyl-L-argininal, reference compound] | 22,800 | 0.025 | 518 | 1.1 | 317 | 1.8 | 5.7 | 100 | – | – |

From patent US5739112A, “Inhibitors of factor Xa” (Corvas International, Inc., priority 1995, dated 1998)
